Our source for the IC50 values is patent US20240199649A1 (Biosplice Therapeutics, Inc., priority 2022, published 2024).

pIC50: −log10 of the molar value.

For the assay, the target named is recombinant DYRK1A kinase (Homo sapiens (Human), UniProt Q13627). The assay is described as follows: DYRK1A kinase assay (Ser/Thr 18 peptide Z-lyte FRET assay). Format: biochemical. As to conditions: DYRK1A 0.25 μg/mL, ATP 15 μM, Ser/Thr peptide 18 4 μM; one hour at room temperature; 11-point dose-response, duplicate. The procedure: Representative compounds were screened using the assay procedure for DYRK1A kinase activity as described below.
Each compound was dissolved in DMSO as a 10 mM stock and used to prepare compound source plates.
This is a non-radioactive assay using fluorescence resonance energy transfer (FRET) between coumarin and fluorescein to detect kinase activity which is represented as a ratio of coumarin emission/fluorescein emission.
The mixture was allowed to incubate with the representative compounds for one hour at room temperature. All reactions were performed in duplicate. Unphosphorylated (“0% Control”) and phosphorylated (“100% control”) forms of Ser/Thr 18 served as control reactions. Additionally, an 11-point dose-response curve of Staurosporine (1 uM top) was run to serve as a positive compound control.
After incubation, Development Reagent A was diluted in Development Buffer then added to the reaction and allowed to further incubate for one hour at room temperature.
Dose-response curves were generated, and inhibitory concentration (IC50) values were calculated using non-linear regression curve fit in the Dotmatics' Studies Software (Bishops Stortford, UK).
Broadly, the pIC50 is the IC50 on a negative log10 scale, so that one unit is a factor of ten. As to `CNc1nc(N[C@@H]2CN(C)C[C@@H]2F)nn2ccc(-c3ccc4nc(C)n(CC(F)F)c4n3)c12` [Compound 198, 5-(3-(2,2-Difluoroethyl)-2-methyl-3H-imidazo[4,5-b]pyridin-5-yl)-N^2-((3R,4S)-4-fluoro-1-methylpyrrolidin-3-yl)-N^4-methylpyrrolo[2,1-f][1,2,4]triazine-2,4-diamine], the negative logarithm of the IC50 (pIC50) was 9.22.
For `CNc1nc(N[C@H]2CN(C3COC3)C[C@H]2F)nn2ccc(-c3ccc4nc(C)n(CC(F)F)c4n3)c12` [Compound 199, 5-(3-(2,2-Difluoroethyl)-2-methyl-3H-imidazo[4,5-b]pyridin-5-yl)-N^2-((3S,4R)-4-fluoro-1-(oxetan-3-yl)pyrrolidin-3-yl)-N^4-methylpyrrolo[2,1-f][1,2,4]triazine-2,4-diamine], the pIC50 is 8.62.
The result for `CNc1nc(N[C@@H]2CN(C3COC3)C[C@@H]2F)nn2ccc(-c3ccc4nc(C)n(CC(F)F)c4n3)c12` [Compound 200, 5-(3-(2,2-Difluoroethyl)-2-methyl-3H-imidazo[4,5-b]pyridin-5-yl)-N^2-((3R,4S)-4-fluoro-1-(oxetan-3-yl)pyrrolidin-3-yl)-N^4-methylpyrrolo[2,1-f][1,2,4]triazine-2,4-diamine] reads 8.89; that for `CNc1nc(NC2CCN(CC(F)F)CC2)nn2ccc(-c3ccc4nc(C)n(CC(F)F)c4n3)c12` [Compound 201, 5-(3-(2,2-Difluoroethyl)-2-methyl-3H-imidazo[4,5-b]pyridin-5-yl)-N^2-(1-(2,2-difluoroethyl)piperidin-4-yl)-N^4-methylpyrrolo[2,1-f][1,2,4]triazine-2,4-diamine], 9.15; that for `CNc1nc(NC2CCN(C(C)=O)CC2)nn2ccc(-c3ccc4nc(C)n(CC(F)F)c4n3)c12` [Compound 202, 1-(4-((5-(3-(2,2-Difluoroethyl)-2-methyl-3H-imidazo[4,5-b]pyridin-5-yl)-4-(methylamino)pyrrolo[2,1-f][1,2,4]triazin-2-yl)amino)piperidin-1-yl)ethan-1-one], 8.74.
The result for `CNc1nc(NC2CCN(C3COC3)CC2)nn2ccc(-c3ccc4nc(C)n(CC(F)F)c4n3)c12` [Compound 203, 5-(3-(2,2-Difluoroethyl)-2-methyl-3H-imidazo[4,5-b]pyridin-5-yl)-N^4-methyl-N^2-(1-(oxetan-3-yl)piperidin-4-yl)pyrrolo[2,1-f][1,2,4]triazine-2,4-diamine] reads 8.70; that for `CNc1nc(N[C@H]2CCN(C)C[C@H]2F)nn2ccc(-c3ccc4nc(C)n(CC(F)F)c4n3)c12` [Compound 204, 5-(3-(2,2-Difluoroethyl)-2-methyl-3H-imidazo[4,5-b]pyridin-5-yl)-N^2-((3R,4S)-3-fluoro-1-methylpiperidin-4-yl)-N^4-methylpyrrolo[2,1-f][1,2,4]triazine-2,4-diamine], 9.10; that for `CNc1nc(N[C@@H]2CCN(C)C[C@@H]2F)nn2ccc(-c3ccc4nc(C)n(CC(F)F)c4n3)c12` [Compound 205, 5-(3-(2,2-Difluoroethyl)-2-methyl-3H-imidazo[4,5-b]pyridin-5-yl)-N^2-((3S,4R)-3-fluoro-1-methylpiperidin-4-yl)-N^4-methylpyrrolo[2,1-f][1,2,4]triazine-2,4-diamine], 9.00.
For the molecule `CNc1nc(N[C@@H]2CCN(C)CC2(F)F)nn2ccc(-c3ccc4nc(C)n(CC(F)F)c4n3)c12` [Compound 214, (R)—N^2-(3,3-Difluoro-1-methylpiperidin-4-yl)-5-(3-(2,2-difluoroethyl)-2-methyl-3H-imidazo[4,5-b]pyridin-5-yl)-N^4-methylpyrrolo[2,1-f][1,2,4]triazine-2,4-diamine], the pIC50 was 8.96.
For the molecule `CNc1nc(N[C@H]2CCN(C)CC2(F)F)nn2ccc(-c3ccc4nc(C)n(CC(F)F)c4n3)c12` [Compound 215, (S)—N^2-(3,3-Difluoro-1-methylpiperidin-4-yl)-5-(3-(2,2-difluoroethyl)-2-methyl-3H-imidazo[4,5-b]pyridin-5-yl)-N^4-methylpyrrolo[2,1-f][1,2,4]triazine-2,4-diamine], the pIC50 was 8.36.
For the molecule `CNc1nc(N[C@@H]2CCN(C3COC3)CC2(F)F)nn2ccc(-c3ccc4nc(C)n(CC(F)F)c4n3)c12` [Compound 216, (R)—N^2-(3,3-Difluoro-1-(oxetan-3-yl)piperidin-4-yl)-5-(3-(2,2-difluoroethyl)-2-methyl-3H-imidazo[4,5-b]pyridin-5-yl)-N^4-methylpyrrolo[2,1-f][1,2,4]triazine-2,4-diamine], the pIC50 was 9.10.
The result for `CNc1nc(N[C@H]2CCN(C3COC3)CC2(F)F)nn2ccc(-c3ccc4nc(C)n(CC(F)F)c4n3)c12` [Compound 217, (S)—N^2-(3,3-Difluoro-1-(oxetan-3-yl)piperidin-4-yl)-5-(3-(2,2-difluoroethyl)-2-methyl-3H-imidazo[4,5-b]pyridin-5-yl)-N^4-methylpyrrolo[2,1-f][1,2,4]triazine-2,4-diamine] reads 8.77; that for `CNc1nc(NC2(C)CCOCC2)nn2ccc(-c3ccc4nc(C)n(CC(F)F)c4n3)c12` [Compound 218, 5-(3-(2,2-Difluoroethyl)-2-methyl-3H-imidazo[4,5-b]pyridin-5-yl)-N^4-methyl-N^2-(4-methyltetrahydro-2H-pyran-4-yl)pyrrolo[2,1-f][1,2,4]triazine-2,4-diamine], 7.85; that for `CNc1nc(N[C@@H]2[C@@H]3CNC[C@@H]32)nn2ccc(-c3ccc4nc(C)n(CC(F)F)c4n3)c12` [Compound 219, N^2-((1R,5S,6r)-3-Azabicyclo[3.1.0]hexan-6-yl)-5-(3-(2,2-difluoroethyl)-2-methyl-3H-imidazo[4,5-b]pyridin-5-yl)-N^4-methylpyrrolo[2,1-f][1,2,4]triazine-2,4-diamine], 8.17.
For the molecule `CNc1nc(N[C@@H]2[C@@H]3CN(C(C)=O)C[C@@H]32)nn2ccc(-c3ccc4nc(C)n(CC(F)F)c4n3)c12` [Compound 220, 1-((1R,5S,6r)-6-((5-(3-(2,2-Difluoroethyl)-2-methyl-3H-imidazo[4,5-b]pyridin-5-yl)-4-(methylamino)pyrrolo[2,1-f][1,2,4]triazin-2-yl)amino)-3-azabicyclo[3.1.0]hexan-3-yl)ethan-1-one], the pIC50 is 8.01.
On to `CNc1nc(N[C@H]2[C@@H]3COC[C@@H]32)nn2ccc(-c3ccc4nc(C)n(CC(F)F)c4n3)c12` [Compound 221, N^2-((1R,5S,6r)-3-Oxabicyclo[3.1.0]hexan-6-yl)-5-(3-(2,2-difluoroethyl)-2-methyl-3H-imidazo[4,5-b]pyridin-5-yl)-N^4-methylpyrrolo[2,1-f][1,2,4]triazine-2,4-diamine], for which the pIC50 was 8.80.
As to `CNc1nc(N[C@@H]2[C@@H]3COC[C@@H]32)nn2ccc(-c3ccc4nc(C)n(CC(F)F)c4n3)c12` [Compound 222, N^2-((1R,5S,6s)-3-Oxabicyclo[3.1.0]hexan-6-yl)-5-(3-(2,2-difluoroethyl)-2-methyl-3H-imidazo[4,5-b]pyridin-5-yl)-N^4-methylpyrrolo[2,1-f][1,2,4]triazine-2,4-diamine], the negative logarithm of the IC50 (pIC50) is 8.39.
The result for `CNc1nc(NC2CC3(CCN(C(C)=O)CC3)C2)nn2ccc(-c3ccc4nc(C)n(CC(F)F)c4n3)c12` [Compound 223, 1-(2-((5-(3-(2,2-Difluoroethyl)-2-methyl-3H-imidazo[4,5-b]pyridin-5-yl)-4-(methylamino)pyrrolo[2,1-f][1,2,4]triazin-2-yl)amino)-7-azaspiro[3.5]nonan-7-yl)ethan-1-one] reads 8.96; that for `CNc1nc(NC2CCC3(CC2)CN(C(C)=O)C3)nn2ccc(-c3ccc4nc(C)n(CC(F)F)c4n3)c12` [Compound 224, 1-(7-((5-(3-(2,2-Difluoroethyl)-2-methyl-3H-imidazo[4,5-b]pyridin-5-yl)-4-(methylamino)pyrrolo[2,1-f][1,2,4]triazin-2-yl)amino)-2-azaspiro[3.5]nonan-2-yl)ethan-1-one], 9.70; that for `CNc1nc(NC2CCC3(CC2)COC3)nn2ccc(-c3ccc4nc(C)n(CC(F)F)c4n3)c12` [Compound 225, 5-(3-(2,2-Difluoroethyl)-2-methyl-3H-imidazo[4,5-b]pyridin-5-yl)-N^4-methyl-N^2-(2-oxaspiro[3.5]nonan-7-yl)pyrrolo[2,1-f][1,2,4]triazine-2,4-diamine], 9.10.
The result for `CNc1nc(N[C@H]2CC[C@@]3(CCO3)CC2)nn2ccc(-c3ccc4nc(C)n(CC(F)F)c4n3)c12` [Compound 226, 5-(3-(2,2-Difluoroethyl)-2-methyl-3H-imidazo[4,5-b]pyridin-5-yl)-N^4-methyl-N^2-((4r,7r)-1-oxaspiro[3.5]nonan-7-yl)pyrrolo[2,1-f][1,2,4]triazine-2,4-diamine] reads 8.70; that for `CNc1nc(N[C@H]2CC[C@]3(CCO3)CC2)nn2ccc(-c3ccc4nc(C)n(CC(F)F)c4n3)c12` [Compound 227, 5-(3-(2,2-Difluoroethyl)-2-methyl-3H-imidazo[4,5-b]pyridin-5-yl)-N^4-methyl-N^2-((4s,7s)-1-oxaspiro[3.5]nonan-7-yl)pyrrolo[2,1-f][1,2,4]triazine-2,4-diamine], 8.48; that for `CNc1nc(NC2C3CCC2CN(C)C3)nn2ccc(-c3ccc4nc(C)n(CC(F)F)c4n3)c12` (centres unmarked) [Compound 228, 5-(3-(2,2-Difluoroethyl)-2-methyl-3H-imidazo[4,5-b]pyridin-5-yl)-N^4-methyl-N^2-(3-methyl-3-azabicyclo[3.2.1]octan-8-yl)pyrrolo[2,1-f][1,2,4]triazine-2,4-diamine], 8.55.
